Measurements from the OPERA property sets (Mansouri et al. 2018).

Settings: not given

SMILES | boiling point | log10 vapour pressure (mmHg) | melting point | ready biodegradability | log10 Henry constant (atm·m³/mol) | log10 Koa | log10 Koc (L/kg) | log10 biodegradation half-life (days)
CCc1cccc(CC)c1N | 236 °C | -2.42 | 3.5 °C |  |  |  |  | 
CCCCCCCC/C=C\CCCCCCCCCCCC(N)=O |  |  | 77.5 °C | readily biodegradable |  |  |  | 
CCCCOC(=O)CC(=O)OCCCC | 252 °C |  | -83 °C |  |  |  |  | 
COc1cc(C(C)=O)ccc1O | 297 °C |  | 115 °C |  |  |  |  | 
CC1CCC1 | 36.3 °C | 3.17 | -162 °C |  |  |  |  | 
NCC[C@H](O)C(=O)N[C@@H]1C[C@H](N)[C@@H](O[C@H]2O[C@H](CN)[C@@H](O)[C@H](O)[C@H]2O)[C@H](O)[C@H]1O[C@H]1O[C@H](CO)[C@@H](O)[C@H](N)[C@H]1O |  |  | 204 °C |  |  |  |  | 
CCCCCCCCCCCCCCCC(=O)N(CCO)CCO |  |  |  | readily biodegradable |  |  |  | 
OCCSSCCO |  |  | 26 °C |  |  |  |  | 
C=C(C)C(=O)OCCN(C)C | 186 °C |  | -30 °C |  |  |  |  | 
CCc1c(C)c[nH]c1C | 199 °C |  | 0 °C |  |  |  |  | 
O=C1C=CCC1 | 136 °C |  |  |  |  |  |  | 
B1Oc2ccccc2O1 |  |  | 12 °C |  |  |  |  | 
CCCC(C)=O | 102 °C | 1.55 | -76.9 °C |  | -4.08 | 3.19 |  | 
c1ccc2nc3ccccc3cc2c1 | 346 °C | -3.87 | 108 °C |  |  |  | 4.18 | 
O[C@H](CCl)[C@H](O)CCl |  |  | 126 °C |  |  |  |  | 
COc1cc(NC(=O)C(N=Nc2ccc(-c3ccc(N=NC(C(C)=O)C(=O)Nc4cc(OC)c(Cl)cc4OC)c(Cl)c3)cc2Cl)C(C)=O)c(OC)cc1Cl (stereo not given) |  |  |  | not readily biodegradable |  |  |  | 
Oc1ccc(Cl)c2c1CCC2 |  |  | 92 °C |  |  |  |  | 
Cc1c2ccccc2c(C)c2ccccc12 |  |  | 183 °C |  |  |  |  | 
N=C(N)NC(=N)N |  |  | 136 °C |  |  |  |  | 
CCOC(=O)CC(=O)CC(=O)OCC | 250 °C |  |  |  |  |  |  | 
Cc1cc(OC(=O)N(C)C)nn1C(=O)N(C)C |  | -4.01 | 69.5 °C |  |  |  |  | 
CC(C)CC=O | 92.5 °C | 1.7 | -51 °C |  |  |  |  | 
CCC(C)CCC(C)(O)CC (stereo not given) | 202 °C |  | -67.5 °C |  |  |  |  | 
CCCCN(C)C(=O)Nc1ccc(Cl)c(Cl)c1 |  |  | 102 °C | not readily biodegradable |  |  | 3.4 | 
CCC(C)(C)C(=O)O[C@H]1C[C@@H](C)C=C2C=C[C@H](C)[C@H](CC[C@@H]3C[C@@H](O)CC(=O)O3)[C@H]21 |  |  | 136 °C |  |  |  |  | 

SMILES | boiling point | log10 vapour pressure (mmHg) | melting point | ready biodegradability | log10 Henry constant (atm·m³/mol) | log10 Koa | log10 Koc (L/kg) | log10 biodegradation half-life (days)
CCCC(C)(CC)CCC | 161 °C |  |  |  |  |  |  | 
CCCCCCCCCCC=CCCCCCCCC(=O)O |  |  | 23 °C |  |  |  |  | 
COC(=O)C1(S(=O)(=O)c2ccc(Br)cc2)CCCCC1 |  |  | 112 °C |  |  |  |  | 
CCOC(=O)/C=C1/SC(N2CCCCC2)C(=O)N1C (stereo not given) |  |  | 140 °C |  |  |  |  | 
C(=NC1CCCCC1)=NC1CCCCC1 |  |  | 34.5 °C | not readily biodegradable |  |  |  | 
ClCCCCCl | 161 °C | 0.616 | -37.3 °C | not readily biodegradable | -3.31 |  |  | 
Nc1c(O)cccc1[N+](=O)[O-] |  |  | 216 °C |  |  |  |  | 
c1ccc(-c2nnc(-c3ccccc3)o2)cc1 |  |  | 139 °C |  |  |  |  | 
OCCSCCCCCCCCCCSCCO |  |  | 69.5 °C |  |  |  |  | 
OCc1cccc(I)c1 | 252 °C |  |  |  |  |  |  | 
Cn1sc(Cl)cc1=O |  |  |  | not readily biodegradable |  |  |  | 
O=C(O)Cc1ccccc1F |  |  | 63 °C |  |  |  |  | 
COc1cc(N)c2c(c1N)C(=O)c1ccccc1C2=O |  |  | 242 °C |  |  |  |  | 
CN(C)C(CSC(N)=O)CSC(N)=O |  |  |  | not readily biodegradable |  |  |  | 
CCCCC1C(=O)N(c2ccccc2)N(c2ccccc2)C1=O |  |  | 105 °C |  |  |  |  | 
Fc1cccnc1 | 108 °C |  |  |  |  |  |  | 
COC(=O)c1cccc(C)c1O | 235 °C |  | 29 °C |  |  |  |  | 
CCOC(=O)c1ccc(OC)c(OC)c1 | 296 °C |  | 43.5 °C |  |  |  |  | 
CCCCCCC(=O)OC(=O)CCCCCC | 270 °C |  | -12.4 °C |  |  |  |  | 
CN(C)C=Nc1c(I)cc(I)c(CCC(=O)O)c1I |  |  | 168 °C |  |  |  |  | 
CC(C)CCNCCC(C)C | 188 °C |  | -44 °C |  |  |  |  | 
CC(C)(S)[C@@H](N)C(=O)O |  |  | 198 °C |  |  |  |  | 
C(=Nc1ccccc1)Nc1ccccc1 |  |  | 142 °C |  |  |  |  | 
CCOC(OCC)(OCC)OCC | 160 °C |  |  |  |  |  |  | 
O=C(O)c1ccccc1I |  |  | 163 °C | not readily biodegradable |  |  |  | 

SMILES | boiling point | log10 vapour pressure (mmHg) | melting point | ready biodegradability | log10 Henry constant (atm·m³/mol) | log10 Koa | log10 Koc (L/kg) | log10 biodegradation half-life (days)
C1=CC2C=CC1C2 | 89.5 °C |  | -19.1 °C |  |  |  |  | 
CCCCCCCCCCCCCCCC(=O)OC[C@@H](O)[C@H]1OC[C@H](O)[C@H]1O |  |  |  | readily biodegradable |  |  |  | 
C1=CCCCC1 | 82.9 °C | 1.95 | -104 °C | not readily biodegradable | -1.34 | 2.83 |  | 
CCCN(CCC)c1c([N+](=O)[O-])cc(C(F)(F)F)c(N)c1[N+](=O)[O-] |  | -7.61 | 124 °C |  |  |  | 4.11 | 
C=C1CCC1 | 42.2 °C |  | -135 °C |  |  |  |  | 
Cc1cccc2c1CCC2 | 205 °C |  |  |  |  |  |  | 0.301
COC(=O)c1ccc(C(=O)OC)cc1 | 288 °C | -2 | 141 °C | readily biodegradable |  |  |  | 
C=CCI | 103 °C |  | -99.3 °C |  |  |  |  | 
CCN1CCCC(N)C1 (stereo not given) | 155 °C |  |  |  |  |  |  | 
CCC(C)(Cl)CCl (stereo not given) | 134 °C |  |  |  |  |  |  | 
C#CCC=C | 42.5 °C |  |  |  |  |  |  | 
CNc1cnn(-c2cccc(C(F)(F)F)c2)c(=O)c1Cl |  | -7.54 | 184 °C |  |  |  | 3.28 | 
O=C(O)c1ccc2c(c1)CCCC2 |  |  | 156 °C |  |  |  |  | 
C=CCC(O)C=C (stereo not given) | 134 °C |  |  |  |  |  |  | 
COc1cccc2c(=O)c3c(n(C)c12)O[C@@H](C(C)C)C3 |  |  | 119 °C |  |  |  |  | 
c1ccc2c(c1)cc1ccc3c4ccccc4cc4ccc2c1c43 |  |  | 317 °C |  |  |  |  | 
CN1CCc2cc3c(cc2C1)OCO3 | 304 °C |  | 66 °C |  |  |  |  | 
C=CC(=C)CCC=C(C)C | 167 °C | 0.304 |  | readily biodegradable |  |  |  | 
Cc1ccc([N+](=O)[O-])c(F)c1 |  |  | 53.2 °C |  |  |  |  | 
O=C(OCC(O)CO)c1ccccc1Nc1ccnc2c(C(F)(F)F)cccc12 (stereo not given) |  |  | 180 °C |  |  |  |  | 
CC(C)OC(C)(C)C | 87.6 °C |  | -88 °C |  |  |  |  | 
C=CCCCCCCC(=O)O |  |  | 5 °C |  |  |  |  | 
CCCCCCCCCCCCCCCCCl | 322 °C | -4.21 | 17.9 °C |  |  |  |  | 
CCCCCCCCCCCCOC(=O)CCSCCC(=O)OCCCCCCCCCCCC |  |  | 41 °C | readily biodegradable |  |  |  | 
C=CC1CNC(=S)O1 (stereo not given) |  |  | 50 °C |  |  |  |  | 

SMILES | boiling point | log10 vapour pressure (mmHg) | melting point | ready biodegradability | log10 Henry constant (atm·m³/mol) | log10 Koa | log10 Koc (L/kg) | log10 biodegradation half-life (days)
Cc1ccc2nc(C)[nH]c2c1 | 350 °C |  | 203 °C |  |  |  |  | 
c1ccc(CC2CCNCC2)cc1 | 270 °C |  | 16.8 °C |  |  |  |  | 
C=C(C)CC1(CC)C(=O)NC(=S)NC1=O |  |  | 160 °C |  |  |  |  | 
CCCCCCC(C(=O)OCC)C(=O)OCC | 269 °C |  |  |  |  |  |  | 
Cc1nc2cc(Cl)ccc2s1 |  |  | 69 °C |  |  |  |  | 
Clc1cc2cccc(Cl)c2c(Cl)c1Cl |  |  |  |  |  | 8.65 |  | 
CC(C)CC(C)C(C)(C)C (stereo not given) | 148 °C |  |  |  |  |  |  | 
Cc1cccc(C)c1NC(=O)C(C)N (stereo not given) |  |  | 256 °C |  |  |  |  | 
Clc1ccc(-c2cccc(Cl)c2Cl)cc1 |  |  |  |  | -3.85 |  |  | 
CCC1CCC(C)CC1 (stereo not given) | 151 °C |  | -80.8 °C |  |  |  |  | 
C1CCCCCCCCCCC1 | 247 °C |  | 60.4 °C | not readily biodegradable |  |  |  | 
C[C@]12CC[C@H]3C(=CCc4cc(O)ccc43)[C@@H]1CCC2=O |  |  | 239 °C |  |  |  |  | 
CCCC(C)(C)CC(C)C | 151 °C |  |  |  |  |  |  | 
Fc1ccc(C(F)(F)F)cc1 | 104 °C |  | -41.7 °C |  |  |  |  | 
FC(F)C(F)F | -19.9 °C |  | -89 °C |  |  |  |  | 
COc1cc(Cl)ccc1N | 260 °C |  | 52 °C |  |  |  |  | 
COc1ccc(C(=O)NCc2cccnc2)cc1C(=O)NCc1cccnc1 |  |  | 124 °C |  |  |  |  | 
CCOC(=O)c1cccc([N+](=O)[O-])c1 | 297 °C |  | 47 °C |  |  |  |  | 
CCOC(=O)C(C(C)=O)C(C)=O | 210 °C |  |  |  |  |  |  | 
CC1=CC=CC1 | 72.8 °C | 2.09 |  |  |  |  |  | 
O=C(O)c1ccc(Sc2ccccc2)cc1 |  |  |  | readily biodegradable |  |  |  | 
C[C@@H]1C[C@@H]([C@H](O)CC2CC(=O)NC(=O)C2)C(=O)[C@@H](C)C1 |  |  | 119 °C | readily biodegradable |  |  |  | 
CCSc1nnc(C(C)(C)C)c(=O)n1N |  | -5.12 | 95 °C |  |  |  |  | 

Same assay, conditions: fish

SMILES | log10 BCF | log10 biotransformation half-life (days)
c1ccc2nc3ccccc3cc2c1 | 2.1 | 
Clc1ccc(-c2cccc(Cl)c2Cl)cc1 |  | 2.16
C1CCCCCCCCCCC1 | 3.91 | 1.33
C[C@@H]1C[C@@H]([C@H](O)CC2CC(=O)NC(=O)C2)C(=O)[C@@H](C)C1 | 0.45 | 
